The assay addresses SARS-CoV-2 Main Protease (SARS-CoV-2) (UniProt P0DTD1).

pIC50: −log10 of the molar value. Values joined by “and” are separate entries in the source; they are usually repeats but may differ in a detail not shown here. Identical values can stand only once. Some results are limits rather than exact numbers.

As a reminder, the pIC50 is −log10 of the IC50, conventionally taken in molar units.

In turn, `CC(C)(C)c1ccc(N(C(=O)c2nnc(O)cc2O)C(C(=O)NCCc2cccc(F)c2)c2cccnc2)cc1` (stereo unspecified) had a pIC50 of less than 4.00.

As to `COc1cc2cncc(NC(=O)Cc3cccc(Cl)c3)c2cc1OC`, the negative logarithm of the IC50 (pIC50) is less than 4.00.

In the case of `CN(C(=O)c1ccccc1N)c1cc(Cl)cc(CC(=O)Nc2cncc3ccccc23)c1`, the pIC50 was 5.71.

`O=C(Cc1cccc(Cl)c1)Nn1cnc2ccccc2c1=O` had a pIC50 of 5.06. Against the preceding compound, the pIC50 is 0.65 log units lower.

As to `Cn1nc(C(=O)NC(C)(C(=O)Nc2cncc3ccccc23)c2ccc(Cl)c(Cl)c2)cc1C#N` (stereo unspecified), the pIC50 was 5.12 and 4.85.

Compound `Cc1ccncc1NC(=O)CN1CCC(C)CC1` had a pIC50 of 4.31.

`Nc1cncc(NC(=O)C2CCOc3ccc(Cl)cc32)c1C1CC1` (stereo unspecified) had a pIC50 of 5.31. This pIC50 lies 1.00 log units higher than the previous one.

Compound `Cc1ccncc1NC(=O)Cc1cc(Cl)cc(-c2ccc(C3CC3(F)F)cc2)c1` (stereo unspecified) showed a pIC50 of 5.07. This pIC50 lies 0.24 log units lower than the previous one.

Turning to `O=C1Cc2ccccc2N(C(=O)Cc2cccc(Cl)c2)C1`, the pIC50 was less than 4.00.

`COc1ccc(NC(=O)C(c2cccnc2)N(C(=O)c2cocn2)c2ccc(C(C)(C)C)cc2)cn1` (stereo unspecified) gave a pIC50 of 5.27.

Regarding `C[C@H](Nc1cc(Cl)cc(CC(=O)Nc2cncc3ccccc23)c1)c1cccc2ccccc12` (stereo in doubt), the pIC50 was 5.45.

In the case of `O=C(COC(=O)C1(c2ccccc2)CCC1)c1c[nH]c2ccccc12`, the pIC50 is less than 4.00.

As to `O=C(NC1(C(=O)Nc2cncc3ccccc23)CCOc2ccc(Cl)cc21)C1CCC(C(=O)N2CCCC2)O1` (stereo unspecified), the pIC50 was 5.55.

In the case of `O=C(Cc1cc(Cl)cc(Oc2cccnc2)c1)Nc1cncc2ccccc12`, the pIC50 was 5.94 and 5.80 and 5.93.

For `O=C(Cc1cccc(Cl)c1)NC1=NC(=O)c2ccccc21`, the pIC50 is less than 4.00.

`COCCn1nc(C(=O)N(c2ccc(C(C)(C)C)cc2)C(C(=O)NCCc2cccc(F)c2)c2cccnc2)ccc1=O` (stereo unspecified) showed a pIC50 of less than 4.00.

For `CN1C(=O)c2ccc(Nc3cc(Cl)cc(CC(=O)Nc4cncc5ccccc45)c3)cc2C1=O`, the pIC50 is 5.78.

With `Cc1ccncc1NC(=O)C(C)c1cccc(Cl)c1` (stereo unspecified), the pIC50 is 4.57 and 4.60.

`O=C(Cc1cc(Cl)cc(Nc2nc(-c3ccc(Cl)c(Cl)c3)cs2)c1)Nc1cncc2ccccc12` gave a pIC50 of 5.61.

In the case of `COC1(CS(=O)(=O)N2Cc3ccc(Cl)cc3C3(CCN(c4cncc5ccccc45)C3=O)C2)CC1` (stereo unspecified), the pIC50 is 6.45.

For the compound `COC[C@]1(C(=O)Nc2cncc3ccccc23)CCOc2cc(Cl)c(Cl)cc21` (stereo in doubt), the pIC50 was 5.62 and 5.36.

`O=C(C[C@]1(C(=O)Nc2cncc3ccccc23)CCOc2ccc(Cl)cc21)N1CCN(C2CCOC2)CC1` (stereo in doubt) showed a pIC50 of 5.70.

Consider `Cc1ccc(S(=O)(=O)N2CCN(C(=O)CCl)C[C@H]2C(=O)NCCc2ccccc2)cc1` (stereo in doubt), for which the pIC50 is 4.93.

In turn, `COc1cc(Br)ccc1Nc1cc(Cl)cc(CC(=O)Nc2cncc3ccccc23)c1` showed a pIC50 of 5.86.

`C=CC(=O)Nc1ccc(O)c(C(=O)NC[C@@H](O)c2ccc3ccccc3c2)c1` (stereo in doubt) gave a pIC50 of less than 4.00.

On to `CC(C)(C)OC(=O)NCCNC(=O)C(c1cccnc1)N(C(=O)c1cocn1)c1ccc(C(C)(C)C)cc1` (stereo unspecified), for which the negative-log IC50 (pIC50) is 5.20.

The compound `CCOC(=O)[C@H]1CCCN(c2cc(Cl)cc(CC(=O)Nc3cncc4ccccc34)c2)C1` (stereo in doubt) showed a pIC50 of 5.61.

Turning to `O=C(O)c1ccc(CNCc2c[nH]nc2-c2cccs2)cc1`, the pIC50 was less than 4.00.

Compound `O=C(CN1CC(C(=O)Nc2cncc3ccccc23)c2cc(Cl)ccc2C1=O)NCC1CCC1` (stereo unspecified) gave a pIC50 of 6.97.

In turn, `Cc1ccncc1NC(=O)Cc1cc(Cl)cc(-c2ncc[nH]2)c1` gave a pIC50 of less than 4.00.

`CNC(=O)CN1C[C@]2(CC(=O)N(c3cncc4ccccc34)C2=O)c2cc(Cl)ccc2C1=O` (stereo in doubt) gave a pIC50 of 4.07.

`Cc1nnc(C2Cc3ccccc3CN2C(=O)CCl)o1` (stereo unspecified) gave a pIC50 of 4.27.

`O=C(Cc1cccc(Cl)c1)Nc1cncc2c(Cl)cccc12` showed a pIC50 of less than 4.00.

As to `COc1ccc2c(N)nn(C(=O)Cc3cccc(Cl)c3)c2c1`, the pIC50 is less than 4.00.

Take `Cc1cc2c(cc1S(=O)(=O)N1CCN(c3ccccc3)CC1)OCO2`: the pIC50 is less than 4.00.

`O=C(Nc1cncc2cc(CN3CC4(CNC4)C3)ccc12)C1CCOc2ccc(Cl)cc21` (stereo unspecified) showed a pIC50 of 5.84.

Compound `Cc1csc2ncc(C(=O)N3C4CCC3c3ccccc34)c(=O)n12` had a pIC50 of less than 4.00.

Compound `CNC(=O)CN1Cc2ccc(Cl)cc2C(C(=O)Nc2cncc3cc(COC)ccc23)C1` (stereo unspecified) had a negative logarithm of the IC50 (pIC50) of 6.92.

On to `O=[N+]([O-])c1cnc(Sc2nnc(-c3ccc(Cl)cc3)o2)s1`, for which the pIC50 is 6.06.

Regarding `O=C(Cc1cc(Cl)cc(N2CCC(Cc3ccccc3)CC2)c1)Nc1cncc2ccccc12`, the negative-log IC50 (pIC50) is 5.47.

As for `COC(=O)CNC(=O)C(c1cccnc1)N(C(=O)c1cocn1)c1ccc(C(C)(C)C)cc1` (stereo unspecified), the pIC50 was 4.97.

Consider `O=C(NCC1=[SH]C=CC1)[C@@H](c1ccccc1)N1Cc2ccccc2C1=O` (stereo in doubt), for which the pIC50 is less than 4.00.

In turn, `N#Cc1c(Cl)cccc1Nc1cc(Cl)cc(CC(=O)Nc2cncc3ccccc23)c1` showed a pIC50 of 5.71.

`O=C(Cc1cccc(Cl)c1)Nc1cncc2ccc(OCC(F)(F)F)cc12` had a pIC50 of 5.96.

`N#Cc1cnn(C(=O)c2cccs2)c1C1CC1` showed a pIC50 of 5.49.

Turning to `O=C(Nc1ccccn1)[C@H]1CN(C(=O)CCl)CCN1S(=O)(=O)c1ccsc1` (stereo in doubt), the pIC50 was 5.32.

Compound `O=C(NCCc1cccc(F)c1)C(c1cccnc1)N(C(=O)c1cocn1)C1Cc2ccccc21` (stereo unspecified) gave a pIC50 of less than 4.00.

Compound `Cc1nc2ccc(NS(=O)(=O)c3cccc4nonc34)cc2o1` gave a pIC50 of less than 4.00.

`O=C(Cc1cncc2ccccc12)Nc1cccc(Cl)c1` showed a pIC50 of 5.19.

As to `O=C(Nc1cncc2c1CNCC2)C1CCOc2ccc(Cl)cc21` (stereo unspecified), the pIC50 is 5.21.

With `O=C(Cc1cccc(Cl)c1)Nc1[nH]nc2cccnc12`, the pIC50 is less than 4.00.

The compound `COc1cc(OC)[n+](C)c(C#N)n1` had a pIC50 of less than 4.00.

The compound `CCOC(=O)Cn1cc(C(=O)N(c2ccc(C(C)(C)C)cc2)C(C(=O)NCCc2cccc(F)c2)c2cccnc2)nn1` (stereo unspecified) showed a pIC50 of 4.36.

`CCC(C)c1ccc(C(NCC(=O)Nc2ccc3[nH]c(=O)[nH]c3c2)c2cccs2)cc1` (stereo unspecified) showed a pIC50 of less than 4.00.

Take `Nc1ccc2c(c1)C(=O)N(c1cc(Cl)cc(CC(=O)Nc3cncc4ccccc34)c1)C2=O`: the pIC50 was 5.73.

With `O=C(CCl)N1CCN(S(=O)(=O)c2cccs2)CC1`, the pIC50 is 5.68 and 5.65.

In turn, `O=C(Cc1cc(Cl)cc(N2CCN(Cc3cccc(F)c3)CC2)c1)Nc1cncc2ccccc12` had a pIC50 of 5.48.

With `CC(C)(C)c1cc(N(C(=O)c2cocn2)C(C(=O)NCCc2cccc(F)c2)c2cccnc2)no1` (stereo unspecified), the pIC50 is 4.29.

In turn, `Cc1cnnn1-c1ccc(N(C(=O)c2cocn2)C(C(=O)NCCc2cccc(F)c2)c2cccnc2)cc1` (stereo unspecified) gave a pIC50 of 4.55.

Compound `COC1(CS(=O)(=O)N2Cc3ccc(Cl)cc3C3(CCN(c4cncc5ccc(OCCN(C)C)cc45)C3=O)C2)CC1` (stereo unspecified) gave a pIC50 of 6.74. Compared with the last compound, the pIC50 is 2.19 log units higher.

Turning to `Cc1nc(C(=O)N(c2ccc(C(C)(C)C)cc2)C(C(=O)NCCc2cccc(F)c2)c2cccnc2)nn1-c1nnc[nH]1` (stereo unspecified), the pIC50 is less than 4.00.

For `CN1CCn2nc(C(=O)N(c3ccc(C(C)(C)C)cc3)C(C(=O)NCCc3cccc(F)c3)c3cccnc3)cc2S1(=O)=O` (stereo unspecified), the pIC50 is less than 4.00.

As to `COc1ccc(-c2cc(COc3cc(Cl)cc(CC(=O)Nc4cnccc4C)c3)on2)cc1`, the pIC50 is 4.20 and 4.09.

For `COc1ccccc1OCC(C)NC(=O)c1cc(=O)[nH]c2cc(F)ccc12` (stereo unspecified), the pIC50 is 4.39 and 4.57.

`O=C(Cc1cc(Cl)cc(N2CCC(C(F)(F)F)CC2)c1)Nc1cncc2ccccc12` showed a pIC50 of 5.84.

As for `CS(=O)(=O)c1ccc(N2CCNCC2)cc1`, the pIC50 was less than 4.00.

`O=C(NCCc1cccc(F)c1)C(c1cccnc1)N(C(=O)c1ccco1)C1CCCC(c2ccc(F)c(F)c2)C1` (stereo unspecified): the pIC50 is less than 4.00.

Compound `CCOC1CC2(C1)CC2N(C(=O)c1ccco1)C(C(=O)NCCc1cccc(F)c1)c1cccnc1` (stereo unspecified) showed a pIC50 of less than 4.00.

The compound `CC(C)(C)c1ccc(N(C(=O)c2cc(=O)[nH]c(=O)[nH]2)C(C(=O)NCCc2cccc(F)c2)c2cccnc2)cc1` (stereo unspecified) showed a pIC50 of less than 4.00.

Compound `CC(=O)C(=O)N1CCN(Cc2cccc(Cl)c2)CC1` gave a pIC50 of less than 4.00.

The compound `COc1ccccc1OCCNC(=O)c1cc(=O)[nH]c2cccc(C)c12` had a pIC50 of 4.97.

In the case of `CN(C)C(=O)CN1CCN(c2cc(Cl)cc(CC(=O)Nc3cncc4ccccc34)c2)CC1`, the pIC50 is 5.55.

The compound `Cc1c(Cl)cccc1S(=O)(=O)N(Cc1ccc(F)cc1)c1ccc2[nH]c(=O)[nH]c2c1` gave a pIC50 of less than 4.00.

As for `Cn1cc(C(C(=O)NCCc2cccc(F)c2)N(C(=O)c2cocn2)c2ccc(C(C)(C)C)cc2)ccc1=O` (stereo unspecified), the pIC50 was less than 4.00.

Take `CN(C)C(=O)C[C@@]1(C(=O)Nc2cncc3ccccc23)CCOc2ccc(Cl)cc21` (stereo in doubt): the pIC50 is 4.69.

In turn, `Cn1ncc(C(=O)N(c2ccc(C(C)(C)C)cc2)C(C(=O)NCCc2cccc(F)c2)c2cccnc2)n1` (stereo unspecified) showed a pIC50 of 4.75.

The compound `COc1ccccc1NCCNC(=O)c1cc(=O)[nH]c2ccccc12` gave a pIC50 of less than 4.00.

Regarding `CC(C)(C)c1ccc(N(C(=O)c2c[nH]c(=O)[nH]2)C(C(=O)NCCc2cccc(F)c2)c2cccnc2)cc1` (stereo unspecified), the pIC50 is 4.80.

For `O=C(NCCc1cccc(F)c1)C(c1cccnc1)N(C(=O)c1cnc[nH]1)c1ccc2ncsc2c1` (stereo unspecified), the pIC50 was less than 4.00.

Take `O=C(Nc1cncc2ccccc12)[C@H]1CN(S(=O)(=O)CC2CS(=O)(=O)C2)Cc2ccc(Cl)cc21` (stereo in doubt): the pIC50 was 7.30 and 6.97 and 7.13.

`O=C(Cc1cccc(Cl)c1)Nc1ncn2ccccc12` had a pIC50 of less than 4.00.

The compound `O=C(Cc1cc(Cl)cc(Cc2ccn[nH]2)c1)Nc1cncc2ccccc12` gave a pIC50 of 5.30.

`CN(Cc1cccc2ccccc12)c1cc(Cl)cc(CC(=O)Nc2cncc3ccccc23)c1` showed a pIC50 of 5.06.

In the case of `O=C(Cc1cc(Cl)cc(N2CCN(Cc3ccc(C(F)(F)F)cc3)CC2)c1)Nc1cncc2ccccc12`, the pIC50 was 5.37. Against the preceding compound, the pIC50 is 0.31 log units higher.

`CC(C)(C)c1ccc(N(C(=O)c2ccn[nH]2)C(C(=O)NCCc2cccc(F)c2)c2cccnc2)cc1` (stereo unspecified) showed a pIC50 of 5.75.

In the case of `O=c1oc(Nc2ccccc2)nc2ccccc12`, the pIC50 is 5.80.

Source of the values: the COVID Moonshot data (paper PMC7615835).
